From patent publication US20240116985A1, “STAPLED PEPTIDES AND METHODS THEREOF” (priority 2020, published 2024)

Target: T1, full-length beta-Catenin (Uniprot ID P35222) (Homo sapiens, UniProt P35222)
T1 construct: 10 nM full-length beta-Catenin (Uniprot ID P35222)
T1 sequence (P35222 1-781): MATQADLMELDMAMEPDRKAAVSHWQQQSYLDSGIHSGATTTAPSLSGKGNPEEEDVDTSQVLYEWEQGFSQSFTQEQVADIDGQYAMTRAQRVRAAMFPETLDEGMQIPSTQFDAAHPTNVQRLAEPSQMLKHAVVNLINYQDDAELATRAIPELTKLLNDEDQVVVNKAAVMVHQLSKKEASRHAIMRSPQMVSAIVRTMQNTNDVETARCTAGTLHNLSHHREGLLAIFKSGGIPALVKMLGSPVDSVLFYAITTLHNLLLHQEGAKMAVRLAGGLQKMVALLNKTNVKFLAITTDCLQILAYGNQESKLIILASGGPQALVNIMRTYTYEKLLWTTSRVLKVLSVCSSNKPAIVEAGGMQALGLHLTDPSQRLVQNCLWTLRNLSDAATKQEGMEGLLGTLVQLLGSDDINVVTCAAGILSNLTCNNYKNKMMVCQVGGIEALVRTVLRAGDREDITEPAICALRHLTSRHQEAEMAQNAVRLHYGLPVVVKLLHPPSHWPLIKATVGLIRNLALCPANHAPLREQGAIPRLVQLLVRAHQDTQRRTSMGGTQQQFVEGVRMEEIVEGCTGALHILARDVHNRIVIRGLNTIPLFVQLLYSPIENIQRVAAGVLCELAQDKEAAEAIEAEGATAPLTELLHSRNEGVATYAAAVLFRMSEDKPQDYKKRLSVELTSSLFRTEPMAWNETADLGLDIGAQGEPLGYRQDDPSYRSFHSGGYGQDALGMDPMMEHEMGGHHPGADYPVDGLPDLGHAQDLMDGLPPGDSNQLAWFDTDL
Assay: Fluorescence polarization IC50 (beta-catenin / 5FAM-TCF4 10-53 competition)
Assay type: binding
Conditions: fluorescence polarization; read-out: beta-Catenin FP IC50

Structure (SMILES)	IC50 [nM]
CC(=O)N1CCC[C@]12CC=CCCCC1(CCCC=CCCCOC(=O)N3CC[C@@](C(=O)N[C@@H](Cc4ccsc4)C(=O)N[C@@H](Cc4csc5ccccc45)C(=O)N[C@@H](CCC(N)=O)C(=O)N[C@H](CO)CC(C)C)(C3)NC(=O)[C@H](CC(C)C)NC(=O)[C@H](Cc3ccccc3)NC(=O)[C@H](C)NC(=O)[C@H](C)NC(=O)[C@H](CN(CC(=O)O)CC(F)(F)F)NC(=O)[C@H](CC(=O)O)NC1=O)NC(=O)[C@H](CC(C)(C)C)NC(=O)[C@H](CC(=O)O)NC2=O (stereo partly drawn) [I-1682, Ac-PL3-Asp-Npg-B5-Asp-TfeGA-Ala-Ala-Phe-Leu-PyrS2-3Thi-BztA-Gln-Leuo1]	41
CC(=O)N1CCC[C@]12CC=CCCCC1(CCCC=CCCCOC(=O)N3CC[C@@](C(=O)N[C@@H](Cc4ccccc4Cl)C(=O)N[C@@H](Cc4csc5ccccc45)C(=O)N[C@@H](CCC(N)=O)C(N)=O)(C3)NC(=O)[C@H]([C@@H](C)O)NC(=O)[C@H](Cc3ccccc3)NC(=O)[C@H](C)NC(=O)CNC(=O)[C@H](CN(CC(=O)O)CC(F)(F)F)NC(=O)[C@H](CC(=O)O)NC1=O)NC(=O)[C@H](CC(C)(C)C)NC(=O)[C@H](CC(=O)O)NC2=O (stereo partly drawn) [I-1690, Ac-PL3-Asp-Npg-B5-Asp-TfeGA-Gly-Ala-Phe-Thr-PyrS2-2C1F-BztA-Gln-NH2]	11
CC(=O)N1CCC[C@]12CCCCCCC1(CCCCCCCCOC(=O)N3CC[C@@](C(=O)N[C@@H](Cc4ccccc4Cl)C(=O)N[C@@H](Cc4csc5ccccc45)C(=O)N[C@@H](CCO)C(N)=O)(C3)NC(=O)[C@H](CCO)NC(=O)[C@H](Cc3ccccc3)NC(=O)[C@H](C)NC(=O)[C@H](C)NC(=O)[C@H](CN(CC(=O)O)CC(F)(F)F)NC(=O)[C@H](CC(=O)O)NC1=O)NC(=O)[C@H](CC(C)(C)C)NC(=O)[C@H](CC(=O)O)NC2=O (stereo partly drawn) [I-1699, Ac-PL3-Asp-Npg-B5-Asp-TfeGA-Ala-Ala-Phe-Hse-PyrS2-2C1F-BztA-Hse-NH2]	533
CC(=O)N1CCC[C@]12CC=CCCCC1(CCCC=CCCCOC(=O)N3CC[C@@](C(=O)N[C@@H](CC4CCCC4)C(=O)N[C@@H](Cc4csc5ccccc45)C(=O)N[C@@H](CCC(N)=O)C(N)=O)(C3)NC(=O)[C@H](CC(C)C)NC(=O)[C@H](Cc3ccccc3)NC(=O)[C@H](C)NC(=O)[C@H](C)NC(=O)[C@H](CN(CC(=O)O)CC(F)(F)F)NC(=O)[C@H](CC(=O)O)NC1=O)NC(=O)[C@H](CC(C)(C)C)NC(=O)[C@H](CC(=O)O)NC2=O (stereo partly drawn) [I-1703, Ac-PL3-Asp-Npg-B5-Asp-TfeGA-Ala-Ala-Phe-Leu-PyrS2-CypA-BztA-Gln-NH2]	24
CC(=O)N1CCC[C@]12CCCCCCC1(CCCCCCCCOC(=O)N3CC[C@@](C(=O)N[C@@H](Cc4ccccc4C#N)C(=O)N[C@@H](Cc4csc5ccccc45)C(=O)N[C@@H](CCC(N)=O)C(N)=O)(C3)NC(=O)[C@H](CC(C)C)NC(=O)[C@H](Cc3ccccc3)NC(=O)[C@H](C)NC(=O)[C@H](C)NC(=O)[C@H](CN(CC(=O)O)CC(F)(F)F)NC(=O)[C@H](CC(=O)O)NC1=O)NC(=O)[C@H](CC(C)(C)C)NC(=O)[C@H](CC(=O)O)NC2=O (stereo partly drawn) [I-1712, Ac-PL3-Asp-Npg-B5-Asp-TfeGA-Ala-Ala-Phe-Leu-PyrS2-2CNF-BztA-Gln-NH2]	597
CC(=O)N1CCC[C@]12CCCCCCC1(CCCCCCCCOC(=O)N3CC[C@@](C(=O)N[C@@H](Cc4ccsc4)C(=O)N[C@@H](Cc4csc5ccccc45)C(=O)N[C@@H](CC(N)=O)C(N)=O)(C3)NC(=O)[C@H](CC(C)C)NC(=O)[C@H](Cc3ccccc3)NC(=O)[C@H](C)NC(=O)[C@H](C)NC(=O)[C@H](CN(CC(=O)O)CC(F)(F)F)NC(=O)[C@H](CC(=O)O)NC1=O)NC(=O)[C@H](CC(C)(C)C)NC(=O)[C@H](CC(=O)O)NC2=O (stereo partly drawn) [I-1715, Ac-PL3-Asp-Npg-B5-Asp-TfeGA-Ala-Ala-Phe-Leu-PyrS2-3Thi-BztA-Asn-NH2]	95
CC(=O)N1CCC[C@]12CCCCCCC1(CCCCCCCCOC(=O)N3CC[C@@](C(=O)N[C@@H](Cc4ccsc4)C(=O)N[C@@H](Cc4csc5ccccc45)C(=O)N[C@H](C(N)=O)[C@@H](C)O)(C3)NC(=O)[C@H](CC(C)C)NC(=O)[C@H](Cc3ccccc3)NC(=O)[C@H](C)NC(=O)[C@H](C)NC(=O)[C@H](CN(CC(=O)O)CC(F)(F)F)NC(=O)[C@H](CC(=O)O)NC1=O)NC(=O)[C@H](CC(C)(C)C)NC(=O)[C@H](CC(=O)O)NC2=O (stereo partly drawn) [I-1716, Ac-PL3-Asp-Npg-B5-Asp-TfeGA-Ala-Ala-Phe-Leu-PyrS2-3Thi-BztA-Thr-NH2]	224
CC(=O)N1CCC[C@]12CCCCCCC1(CCCCCCCCOC(=O)N3CC[C@@](C(=O)N[C@@H](Cc4ccsc4)C(=O)N[C@@H](Cc4csc5ccccc45)C(=O)N[C@@H](Cc4ccccc4C(N)=O)C(N)=O)(C3)NC(=O)[C@H](CC(C)C)NC(=O)[C@H](Cc3ccccc3)NC(=O)[C@H](C)NC(=O)[C@H](C)NC(=O)[C@H](CN(CC(=O)O)CC(F)(F)F)NC(=O)[C@H](CC(=O)O)NC1=O)NC(=O)[C@H](CC(C)(C)C)NC(=O)[C@H](CC(=O)O)NC2=O (stereo partly drawn) [I-1717, Ac-PL3-Asp-Npg-B5-Asp-TfeGA-Ala-Ala-Phe-Leu-PyrS2-3Thi-BztA-2cbmf-NH2]	249
CC(=O)N1CCC[C@]12CCCCCCC1(CCCCCCCCOC(=O)N3CC[C@@](C(=O)N[C@@H](Cc4ccsc4)C(=O)N[C@@H](Cc4csc5ccccc45)C(=O)N[C@@H](Cc4cccc(C(N)=O)c4)C(N)=O)(C3)NC(=O)[C@H](CC(C)C)NC(=O)[C@H](Cc3ccccc3)NC(=O)[C@H](C)NC(=O)[C@H](C)NC(=O)[C@H](CN(CC(=O)O)CC(F)(F)F)NC(=O)[C@H](CC(=O)O)NC1=O)NC(=O)[C@H](CC(C)(C)C)NC(=O)[C@H](CC(=O)O)NC2=O (stereo partly drawn) [I-1718, Ac-PL3-Asp-Npg-B5-Asp-TfeGA-Ala-Ala-Phe-Leu-PyrS2-3Thi-BztA-3cbmf-NH2]	382
CC(=O)NCCCC[C@H](NC(=O)[C@H](Cc1csc2ccccc12)NC(=O)[C@H](Cc1ccsc1)NC(=O)[C@]12CCN(C1)C(=O)OCCCCCCCCC1(CCCCCC[C@]3(CCCN3C(C)=O)C(=O)N[C@@H](CC(=O)O)C(=O)N[C@@H](CC(C)(C)C)C(=O)N1)C(=O)N[C@@H](CC(=O)O)C(=O)N[C@@H](CN(CC(=O)O)CC(F)(F)F)C(=O)N[C@@H](C)C(=O)N[C@@H](C)C(=O)N[C@@H](Cc1ccccc1)C(=O)N[C@@H](CC(C)C)C(=O)N2)C(N)=O (stereo partly drawn) [I-1719, Ac-PL3-Asp-Npg-B5-Asp-TfeGA-Ala-Ala-Phe-Leu-PyrS2-3Thi-BztA-AcLys-NH2]	187

Further lines, results first:

IC50 [nM]	Structure (SMILES)
212	CC(=O)N1CCC[C@]12CCCCCCC1(CCCCCCCCOC(=O)N3CC[C@@](C(=O)N[C@@H](Cc4ccsc4)C(=O)N[C@@H](Cc4csc5ccccc45)C(=O)N[C@@H](C)C(N)=O)(C3)NC(=O)[C@H](CC(C)C)NC(=O)[C@H](Cc3ccccc3)NC(=O)[C@H](C)NC(=O)[C@H](C)NC(=O)[C@H](CN(CC(=O)O)CC(F)(F)F)NC(=O)[C@H](CC(=O)O)NC1=O)NC(=O)[C@H](CC(C)(C)C)NC(=O)[C@H](CC(=O)O)NC2=O (stereo partly drawn) [I-1720, Ac-PL3-Asp-Npg-B5-Asp-TfeGA-Ala-Ala-Phe-Leu-PyrS2-3Thi-BztA-Ala-NH2]
28	CC(=O)N1CCC[C@]12CC=CCCCC1(CCCC=CCCCOC(=O)N3CC[C@@](C(=O)N[C@@H](Cc4ccccc4Cl)C(=O)N[C@@H](Cc4csc5ccccc45)C(=O)N[C@@H](CCC(N)=O)C(N)=O)(C3)NC(=O)[C@H](CC(N)=O)NC(=O)[C@H](Cc3ccccc3N)NC(=O)[C@H](C)NC(=O)[C@H](C)NC(=O)[C@H](CC(=O)O)NC(=O)[C@H](CC(=O)O)NC1=O)NC(=O)[C@H](CC(C)(C)C)NC(=O)[C@H](CC(=O)O)NC2=O (stereo partly drawn) [I-1727, Ac-PL3-Asp-Npg-B5-Asp-Asp-Ala-Ala-2NH2F-Asn-PyrS2-2C1F-BztA-Gln-NH2]
14	CC(=O)N1CCC[C@]12CC=CCCCC1(CCCC=CCCCOC(=O)N3CC[C@@](C(=O)N[C@@H](Cc4ccsc4)C(=O)N[C@@H](Cc4csc5ccccc45)C(=O)N[C@@H](CCC(N)=O)C(N)=O)(C3)NC(=O)[C@H](CC(N)=O)NC(=O)[C@H](Cc3ccccc3N)NC(=O)[C@H](C)NC(=O)[C@H](C)NC(=O)[C@H](CC(=O)O)NC(=O)[C@H](CC(=O)O)NC1=O)NC(=O)[C@H](CC(C)(C)C)NC(=O)[C@H](CC(=O)O)NC2=O (stereo partly drawn) [I-1728, Ac-PL3-Asp-Npg-B5-Asp-Asp-Ala-Ala-2NH2F-Asn-PyrS2-3Thi-BztA-Gln-NH2]
9	CC(=O)N(CC(=O)O)C[C@@H]1NC(=O)[C@H](CC(=O)O)NC(=O)C2(CCCC=CCCCOC(=O)N3CC[C@@](C(=O)N[C@@H](Cc4ccsc4)C(=O)N[C@@H](Cc4csc5ccccc45)C(=O)N[C@@H](CCC(N)=O)C(N)=O)(C3)NC(=O)[C@H](CC(C)C)NC(=O)[C@H](Cc3ccccc3)NC(=O)[C@H](C)NC(=O)[C@H](C)NC1=O)CCCC=CC[C@]1(CCCN1C(C)=O)C(=O)N[C@@H](CC(=O)O)C(=O)N[C@@H](CC(C)(C)C)C(=O)N2 (stereo partly drawn) [I-1729, Ac-PL3-Asp-Npg-B5-Asp-[Ac]GA-Ala-Ala-Phe-Leu-PyrS2-3Thi-BztA-Gln-NH2]
